Biological target: T1, HGFR (c-MET) (Homo sapiens, UniProt P08581)
T1 construct: purchased Upstate 14-526
Experiment: HGFR continuous-coupled spectrophotometric assay (Ki and % inhibition)
Assay type: biochemical
Conditions: Table 3, column 'Ki(μM) or I(%)': values without % sign; read-out: Ki

T1 sequence (P08581 25-1390): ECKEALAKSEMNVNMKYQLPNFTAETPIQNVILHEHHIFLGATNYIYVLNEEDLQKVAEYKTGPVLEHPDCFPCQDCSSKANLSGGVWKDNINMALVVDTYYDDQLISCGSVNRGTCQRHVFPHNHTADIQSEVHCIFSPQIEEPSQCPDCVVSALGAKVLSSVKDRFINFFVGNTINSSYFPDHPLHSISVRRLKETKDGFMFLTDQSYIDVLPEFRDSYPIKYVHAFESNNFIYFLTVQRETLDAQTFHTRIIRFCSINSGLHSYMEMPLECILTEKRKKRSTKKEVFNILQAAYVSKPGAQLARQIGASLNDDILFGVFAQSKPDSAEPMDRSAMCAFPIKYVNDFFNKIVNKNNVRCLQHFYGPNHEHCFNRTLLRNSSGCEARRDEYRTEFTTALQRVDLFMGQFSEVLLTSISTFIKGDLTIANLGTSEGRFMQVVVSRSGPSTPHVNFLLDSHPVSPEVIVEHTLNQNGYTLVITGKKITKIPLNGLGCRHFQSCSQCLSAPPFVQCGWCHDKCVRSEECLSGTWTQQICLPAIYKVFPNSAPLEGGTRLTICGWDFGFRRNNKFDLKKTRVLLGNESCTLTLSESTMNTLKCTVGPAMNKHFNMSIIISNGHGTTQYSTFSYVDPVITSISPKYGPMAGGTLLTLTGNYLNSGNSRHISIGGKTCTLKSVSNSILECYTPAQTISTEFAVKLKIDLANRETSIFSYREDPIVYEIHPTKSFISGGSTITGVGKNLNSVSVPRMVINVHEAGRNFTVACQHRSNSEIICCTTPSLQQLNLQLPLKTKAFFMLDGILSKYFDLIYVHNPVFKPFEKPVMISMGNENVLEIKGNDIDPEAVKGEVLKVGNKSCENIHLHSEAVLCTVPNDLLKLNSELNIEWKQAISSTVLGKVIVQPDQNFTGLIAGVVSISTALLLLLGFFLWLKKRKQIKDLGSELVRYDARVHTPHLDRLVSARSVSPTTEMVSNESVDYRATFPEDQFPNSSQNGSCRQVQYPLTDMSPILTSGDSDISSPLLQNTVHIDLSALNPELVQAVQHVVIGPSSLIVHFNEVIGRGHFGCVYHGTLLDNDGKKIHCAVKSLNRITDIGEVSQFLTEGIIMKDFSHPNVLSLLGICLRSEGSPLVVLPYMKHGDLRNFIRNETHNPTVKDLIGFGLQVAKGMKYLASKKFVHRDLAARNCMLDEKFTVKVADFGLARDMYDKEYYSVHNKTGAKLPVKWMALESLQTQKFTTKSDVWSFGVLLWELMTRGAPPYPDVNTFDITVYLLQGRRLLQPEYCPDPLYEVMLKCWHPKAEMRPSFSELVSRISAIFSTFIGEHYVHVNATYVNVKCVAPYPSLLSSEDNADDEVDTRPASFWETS

Ki | Structure (SMILES)
0.27 µM | CC(Oc1cc(-c2ccc(CN3C[C@@H](C)O[C@@H](C)C3)cc2)cnc1N)c1c(Cl)ccc(F)c1Cl (stereo partly drawn) [Example I-571, 3-[1-(2,6-Dichloro-3-fluoro-phenyl)-ethoxy]-5-(4-((2R,6S)-2,6-dimethyl-morpholin-4-ylmethyl)-phenyl]-pyridin-2-ylamine]
0.554 µM | CC(Oc1cc(-c2ccc(CN3CCOCC3)cc2)cnc1N)c1c(Cl)ccc(F)c1Cl (stereo not shown) [Example I-572, 3-[1-(2,6-Dichloro-3-fluoro-phenyl)-ethoxy]-(4-morpholin-4-ylmethyl-phenyl)-pyridin-2-ylamine]
0.0472 µM | CCN1CCN(C(=O)c2ccc(-c3cnc(N)c(OC(C)c4c(Cl)ccc(F)c4Cl)c3)cc2)CC1 (stereo not shown) [Example I-633, (4-{6-Amino-5-[1-(2,6-dichloro-3-fluoro-phenyl)-ethoxy]-pyridin-3-yl}-phenyl)-(4-ethyl-piperazin-1-yl)-methanone]
1.53 µM | Nc1ncc(-c2ccc(C(=O)N3CCC(N4CCCC4)CC3)cc2)cc1OCc1ccc(-c2ccccc2)cc1 [Example I-651]

Same assay, conditions: at 50 nM; Table 5, library products of procedure 40, crude reaction stock; read-out: % inhibition (percent c-MET inhibition)

inhibition at 0.05 µM | Structure (SMILES)
63% | CC(Oc1cc(-c2ccc(C(=O)N3CCCCC3CCO)cc2)cnc1N)c1c(Cl)ccc(F)c1Cl [Example L-47]
69% | CC(Oc1cc(-c2ccc(C(=O)N(C)CCO)cc2)cnc1N)c1c(Cl)ccc(F)c1Cl [Example L-104]
64% | CC(C)OCCNC(=O)c1ccc(-c2cnc(N)c(OC(C)c3c(Cl)ccc(F)c3Cl)c2)cc1 [Example L-140]

Same assay, conditions: at 1 μM; Table 8, library products of procedure 43, crude reaction stock; read-out: % inhibition (percent c-MET inhibition)

inhibition at 1 µM | Structure (SMILES)
17% | CC1CN(C(=O)c2ccc(-c3cnc(N)c(COc4cc(F)ccc4C(F)(F)F)c3)cc2)CC(C)N1 (stereo not shown)
27% | CC1CN(C(=O)c2ccc(-c3cnc(N)c(OCc4nc5cc(C(F)(F)F)ccc5s4)c3)cc2)CC(C)N1 (stereo not shown)

Same assay, conditions: cells marked "Ki"; read-out: Ki (printed in the Met IC50 column)

Ki | Structure (SMILES)
0.016 µM | CC(Oc1cc(-c2ccc(OCC(=O)N3CCN(C(=O)OC(C)(C)C)CC3)cc2)cnc1N)c1c(Cl)ccc(F)c1Cl (stereo not shown) [Example I-479, 4-[2-(4-{8-Amino-5-[1-(2,6-dichloro-3-fluoro-phenyl)-ethoxy]-pyridin-3-yl}-phenoxy)-acetyl]-piperazine-1-carboxylic acid tert-butyl ester]

Same assay, conditions: read-out: % (inhibition) at 1 μM (printed in the Met IC50 column), at 1 μM

Structure (SMILES) | inhibition at 1 µM
CC(Oc1cc(-c2ccc(C(=O)N3CCN(C)CC3)cc2)cnc1N)c1cccc(F)c1C(F)(F)F (stereo not shown) [Example I-442, (4-{6-Amino-5-[1-(3-fluoro-2-trifluoromethyl-phenyl)-ethoxy]-pyridin-3-yl}-phenyl)-(4-methyl-piperazin-1-yl)-methanone] | 16%
CC(Oc1cc(-c2ccc(C(=O)N3CCC(N4CCCC4)CC3)cc2)cnc1N)c1cccc(F)c1C(F)(F)F (stereo not shown) [Example I-443, (4-{6-Amino-5-[1-(3-fluoro-2-trifluoromethyl-phenyl)-ethoxy]-pyridin-3-yl}-phenyl)-(4-pyrrolidin-1-yl-piperidin-1yl)-methanone] | 13%
CC(Oc1cc(-c2ccc(C(=O)N3C[C@@H](C)N[C@@H](C)C3)cc2)cnc1N)c1cccc(F)c1C(F)(F)F (stereo partly drawn) [Example I-444, (4-{6-Amino-5-[1-(3-fluoro-2-trinuommethyl-phenyl)-ethoxy]-pyridin-3-yl}-phenyl)-((3R,5S)-3,5-dimethyl-piperazin-1-yl)-methanone] | 10%
CC(Oc1cc(-c2ccc(C(=O)N3CCC[C@H]3CN3CCCC3)cc2)cnc1N)c1cccc(F)c1C(F)(F)F (stereo partly drawn) [Example I-445, (4-{6-Amino-5-[1-(3-fluoro-2-trifluoromethyl-phenyl)-ethoxy]-pyuidin-3-yl}-phenyl)-((S)-2-pyrrolidin-1-ylmethyl-pyrrolidin-1-yl)-methanone] | 15%
CC(Oc1cc(-c2ccc(C(=O)N3CCC[C@@H]3CN3CCCC3)cc2)cnc1N)c1cccc(F)c1C(F)(F)F (stereo partly drawn) [Example I-446, (4-{6 Amino-5-[1-(3-fluoro-2-trifluoromethyl-phenyl)-ethoxy]pyridin-3-yl}-phenyl)-((R) 2 pyrrolidin-1-ylmethyl-pyrrolidin-1-yl)-methanone] | 12%
CC(Oc1cc(-c2ccc(C(=O)NC3CCN(C)CC3)cc2)cnc1N)c1cccc(F)c1C(F)(F)F (stereo not shown) [Example I-449, 4-{6-Amino-5-[1-(3-fluoro-2-trifluoromethyl-phenyl)-ethoxy]pyridin-3-yl}-N-[1-methylpiperidin-4-yl)-benzamide] | 12%
CC(Oc1cc(-c2ccc(C(=O)NCCN3CCCC3)cc2)cnc1N)c1cccc(F)c1C(F)(F)F (stereo not shown) [Example I-450, 4-{6-Amino-5-[1-(3-fluoro-2-trifluoromethyl-phenyl)-ethoxy]-pyridin-3-yl}-N-(2-pyrrolidin-1-yl-ethyl)-benzamide] | 7%
CC(Oc1cc(-c2ccc(C(=O)NCCN3CCOCC3)cc2)cnc1N)c1cccc(F)c1C(F)(F)F (stereo not shown) [Example I-451, 4-{6-Amino-5-[1-(3-fluoro-2-trifluoromethyl-phenyl)-ethoxy]-pyridin-3-yl}-N-(2-morpholin-4-yl-ethyl)-benzamide] | 12%
CC(Oc1cc(-c2ccc(C(=O)NCCCN3CCCC3)cc2)cnc1N)c1cccc(F)c1C(F)(F)F (stereo not shown) [Example I-452, 4-{6-Amino-5-[1-(3-fluoro-2-trifluoromethyl-phenyl)-ethoxy]-pyridin-3-yl}-N-(3-pyrrolidin-1-yl-propyl)-benzamide] | 3%
CC(Oc1cc(-c2ccc(C(=O)NCCCN3CCOCC3)cc2)cnc1N)c1cccc(F)c1C(F)(F)F (stereo not shown) [Example I-453, 4-{6-Amino-5-[1-(3-fluoro-2-trifluoromethyl-phenyl)-ethoxy]-pyridin-3-yl}-N-(3-morpholin-4-yl-propyl)-benzamide] | 10%
CC(Oc1cc(C#N)cnc1N)c1c(Cl)ccc(C#N)c1Cl (stereo not shown) [Example I-455, 6-Amino-5-[1-(2,6-dichloro-3-cyano-phenyl)-ethoxy]-nicotinonitrile] | 8%

The remaining lines, values ahead:

inhibition at 1 µM | Structure (SMILES)
0% | CC(Oc1cc(CN)cnc1N)c1c(Cl)ccc(F)c1Cl (stereo not shown) [Example I-456, 5-Aminomethyl-3-[1-(2,6-dichloro-3-fluoro-phenyl)-ethoxy]-pyridin-2-ylamine]
1% | CC(Oc1cc(CNC(=O)N2CCC[C@@H]2CN2CCCC2)cnc1N)c1c(Cl)ccc(F)c1Cl (stereo partly drawn) [Example I-457, (R)-2-Pyrrolidin-1-ylmethyl-pyrrolidine-1-carboxylic acid {6-amino-5-[1-(2,6-dichloro-3-fluoro-phenyl)-ethoxy]-pyridin-3-ylmethyl}-amide]
0% | CC(Oc1cc(CNS(C)(=O)=O)cnc1N)c1c(Cl)ccc(F)c1Cl (stereo not shown) [Example I-458, N-{6-Amino-5-[1-(2,6-dichloro-3-fluorophenyl)-ethoxy]-pyridin-3-ylmethyl}-methanesulfonamide]
2% | CC(=O)NCc1cnc(N)c(OC(C)c2c(Cl)ccc(F)c2Cl)c1 (stereo not shown) [Example I-459, N-{6-Amino-5-[1-(2,6-dichloro-3-fluoro-phenyl)-ethoxy]-pyridin-3-ylmethyl}-acetamide]
9% | Cc1ccc(S(=O)(=O)NCc2cnc(N)c(OC(C)c3c(Cl)ccc(F)c3Cl)c2)cc1 (stereo not shown) [Example I-460, N-{6-Amino-5-[1-(2,6-dichloro-3-fluoro-phenyl)-ethoxy]-pyridin-3-ylmethyl}-4-methyl-benzenesulfonamide]
2% | CC(Oc1cc([C@H](O)CO)cnc1N)c1c(Cl)ccc(F)c1Cl (stereo partly drawn) [Example I-462, (S)-1-{6 Amino-5-[1-(2,6-dichloro-3-fluoro-phenyl)-ethoxy]-pyridin-3-yl}-ethane-1,2-diol]
2% | CC(Oc1cc([C@@H](O)CO)cnc1N)c1c(Cl)ccc(F)c1Cl (stereo partly drawn) [Example I-463, (R)-1-{6-Amino-5-[1-(2,6-dichloro-3-fluoro-phenyl)-ethoxy]-pyridin-3-yl}-ethane-1,2-diol]
8% | COc1c(F)cccc1COc1cc(Br)cnc1N [Example I-468, 5-Bromo-3-(3-fluoro-2-methoxy-benzyloxy)-pyridin-2-ylamine]
7% | COc1c(F)cccc1C(C)Oc1cc(Br)cnc1N (stereo not shown) [Example I-469, 5-Bromo-3-[1-(3-fluoro-2-methoxy-phenyl)-ethoxy]-pyridin-2-ylamine]
3% | COc1c(F)cccc1COc1cc(-c2ccc(C(=O)N3C[C@@H](C)N[C@@H](C)C3)cc2)cnc1N [Example I-470, (4-{6-Amino-5-(3-fluoro-2-methoxy-benzyloxy)-pyridin-3-yl]-phenyl}-((3R,5S)-3,5-dimethyl-piperazin-1-yl)-methanone]
1% | COc1c(F)cccc1C(C)Oc1cc(-c2ccc(C(=O)N3C[C@@H](C)N[C@@H](C)C3)cc2)cnc1N (stereo partly shown) [Example I-471]
0% | CC(Oc1cc(Br)cnc1N)c1cccc(F)c1Cl (stereo not shown) [Example I-486, Bromo-3-[1-(2-chloro-3-fluoro-phenyl)-ethoxy]-pyridin-2-ylamine]

Biological target: T2, GST fusion protein containing the Met kinase domain (Homo sapiens, UniProt P08581)
T2 construct: Purified GST fusion protein containing the Met kinase domain, SUGEN, Inc
T2 sequence (P08581 1078-1345 limits assumed): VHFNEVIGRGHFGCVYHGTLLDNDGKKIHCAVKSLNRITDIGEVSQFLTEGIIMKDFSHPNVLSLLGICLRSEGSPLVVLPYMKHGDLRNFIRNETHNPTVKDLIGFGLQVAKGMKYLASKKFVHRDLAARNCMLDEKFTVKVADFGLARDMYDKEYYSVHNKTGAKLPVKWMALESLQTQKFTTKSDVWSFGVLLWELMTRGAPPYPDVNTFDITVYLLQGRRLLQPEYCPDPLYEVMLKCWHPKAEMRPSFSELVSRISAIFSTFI
Experiment: MET transphosphorylation assay (ELISA, poly(glu-tyr) substrate)
Assay type: biochemical
Conditions: not given

IC50 | Structure (SMILES)
8100 nM | CN(C)[C@H]1CCN(C(=O)c2ccc(-c3cnc(N)c(OCc4ccc(F)cc4Cl)c3)cc2)C1 [Example I-205]
1500 nM | CN(C)CCS(=O)(=O)Nc1cccc(-c2cnc(N)c(OCc3c(F)ccc(F)c3Cl)c2)c1 [Example I-259, 2-Dimethylamino-ethanesulfonic acid {3-[6-amino-5-(2-chloro-3,6-difluoro-benzyloxy)-pyridin-3-yl]-phenyl}-amide]
18 nM | CC(Oc1cc(-c2ccc(C(=O)N3CCC(N)CC3)cc2)cnc1N)c1c(Cl)ccc(F)c1Cl (stereo not shown) [Example I-305, (4-{6-Amino-5-[1-(2,6-dichloro-3-fluoro-phenyl)-ethoxy]-pyridin-3-yl}-phenyl)-(4-amino-pipendin-1-yl)-methanone]
62 nM | CC(Oc1cc(-c2ccc(C(=O)N3CCC(N4CCCC4)CC3)cc2)cnc1N)c1c(F)ccc(F)c1Cl (stereo not shown) [Example I-339, (4-{6-Amino-5-[1-(2-chloro-3,6-difluoro-phenyl)-ethoxy]-pyridin-3-yl}-phenyl)-(4-pyrrolidin-1-yl-piperidin-1-yl)-methanone]

Source: patent US20070072874A1, “Aminoheteroaryl compounds as protein kinase inhibitors” (Sugen, Inc., priority 2003, published 2007)
